Results on 13 compounds are retold here after patent US12590066B2, “Fused-heterocyclyl-carbonohydrazonoyl dicyanide compounds and use thereof” (KOREA INSTITUTE OF SCIENCE AND TECHNOLOGY, priority 2020, dated 2026).

Holding throughout (assay): Inhibitory effect on CYP coenzyme activity, human liver microsomes
Common to all, as to type: in vitro ADME

Series [1] deals with T1, CYP1A2 (Homo sapiens, UniProt P05177).
T1 construct: human liver microsomes (0.25 mg/mL); from tissue; host or cells: human liver microsomes
T1 sequence (P05177 1-516): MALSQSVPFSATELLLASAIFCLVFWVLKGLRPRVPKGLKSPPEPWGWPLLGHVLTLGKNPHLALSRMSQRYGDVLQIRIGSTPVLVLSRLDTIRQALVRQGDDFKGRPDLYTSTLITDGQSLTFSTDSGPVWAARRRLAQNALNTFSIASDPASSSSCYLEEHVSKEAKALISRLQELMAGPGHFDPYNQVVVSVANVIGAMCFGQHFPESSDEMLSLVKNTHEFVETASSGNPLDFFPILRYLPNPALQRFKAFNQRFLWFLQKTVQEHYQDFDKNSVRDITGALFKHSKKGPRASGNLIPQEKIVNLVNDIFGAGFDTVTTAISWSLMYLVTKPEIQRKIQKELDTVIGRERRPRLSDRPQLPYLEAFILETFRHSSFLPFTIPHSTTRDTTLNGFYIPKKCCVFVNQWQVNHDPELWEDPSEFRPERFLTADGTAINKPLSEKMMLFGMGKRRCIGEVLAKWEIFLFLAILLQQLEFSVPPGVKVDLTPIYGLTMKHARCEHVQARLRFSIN
Particulars: 10 μM compound, human liver microsomes 0.25 mg/mL, substrate phenacetin, 15 minutes. The procedure: (§1) The inhibitory effects of the compounds prepared according to Examples 1 to 57 on CYP coenzyme activity were identified. Specifically, human liver microsomes (0.25 mg/mL), a 0.1 M phosphate buffer solution (pH 7.4), a substrate drug cocktail of five types of drug metabolism enzymes (50 μM phenacetin, 10 μM diclofenac, 100 μM S-mephenytoin, 5 μM dextromethorphan, and 2.5 μM midazolam), and the compound at a concentration of 0 μM or 10 μM were mixed and pre-cultured at 37° C. for 5 minutes, and then further cultured at 37° C. for 15 minutes together with an NADPH generation system solution added thereto. Thereafter, the reaction was terminated by adding an acetonitrile solution containing an internal standard material (terfenadine) and centrifuged for 5 minutes (14,000 rpm, 4° C.), and then a supernatant was injected into an LC-MS/MS system for simultaneous analysis of metabolites of the substrate drugs to thereby evaluate the inhibitory effects on drug metabolism.
(§2) Metabolites of each CYP coenzyme indicator drug generated through the reaction were analyzed using the Shimadzu Nexera XR system and TSQ Vantage (Thermo). In an HPLC column, Kinetex C18 (2.1 mm×100 mm, 2.6 μm, particle size; Phenomenex, USA) was used, and mobile phases were (A) distilled water containing 0.1% formic acid and (B) acetonitrile containing 0.1% formic acid, and a gradient program shown in Table 3 was applied thereto.
(§3) The generated metabolites were quantified using a multiple reaction monitoring (MRM) quantification mode, and Xcalibur (version 1.6.1) was used for data analysis. In order to express inhibitory effects of the novel compound prepared according to the examples of the present invention on CYP coenzyme activity, CYP coenzyme activities (%) with respect to the control group not treated with the compound are shown in Table 4 below.

Series [2] has as its target T2, CYP2C19 (Homo sapiens, UniProt P33261).
T2 construct: human liver microsomes (0.25 mg/mL); from tissue; host or cells: human liver microsomes
Particulars: 10 μM compound, human liver microsomes 0.25 mg/mL, substrate S-mephenytoin, 15 minutes. The procedure: as §1, §2, §3

Series [3] concerns the target T3, CYP2C9 (Homo sapiens, UniProt P11712).
T3 construct: human liver microsomes (0.25 mg/mL); from tissue; host or cells: human liver microsomes
Particulars: 10 μM compound, human liver microsomes 0.25 mg/mL, substrate diclofenac, 15 minutes. The procedure: as §1, §2, §3

Series [4] deals with T4, CYP2D6 (Homo sapiens, UniProt P10635).
T4 construct: human liver microsomes (0.25 mg/mL); from tissue; host or cells: human liver microsomes
T4 sequence (P10635 whole entry): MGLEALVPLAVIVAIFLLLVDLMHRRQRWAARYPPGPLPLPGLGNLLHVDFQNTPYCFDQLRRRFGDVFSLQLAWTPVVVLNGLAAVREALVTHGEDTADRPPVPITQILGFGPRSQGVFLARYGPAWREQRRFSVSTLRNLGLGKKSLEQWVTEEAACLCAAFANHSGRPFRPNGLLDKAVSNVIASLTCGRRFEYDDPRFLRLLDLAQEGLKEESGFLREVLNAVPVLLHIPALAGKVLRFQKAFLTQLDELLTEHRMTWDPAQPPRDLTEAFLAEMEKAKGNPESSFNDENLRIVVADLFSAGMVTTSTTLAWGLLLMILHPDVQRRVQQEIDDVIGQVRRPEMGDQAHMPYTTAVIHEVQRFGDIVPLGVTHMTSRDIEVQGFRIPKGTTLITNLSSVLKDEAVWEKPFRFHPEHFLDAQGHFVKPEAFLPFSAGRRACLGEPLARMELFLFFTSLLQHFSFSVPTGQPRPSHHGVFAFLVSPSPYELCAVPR
Particulars: 10 μM compound, human liver microsomes 0.25 mg/mL, substrate dextromethorphan, 15 minutes. The method, then: as §1, §2, §3

Series [5] deals with T5, CYP3A4 (Homo sapiens, UniProt P08684).
T5 construct: human liver microsomes (0.25 mg/mL); from tissue; host or cells: human liver microsomes
T5 sequence (P08684 whole entry): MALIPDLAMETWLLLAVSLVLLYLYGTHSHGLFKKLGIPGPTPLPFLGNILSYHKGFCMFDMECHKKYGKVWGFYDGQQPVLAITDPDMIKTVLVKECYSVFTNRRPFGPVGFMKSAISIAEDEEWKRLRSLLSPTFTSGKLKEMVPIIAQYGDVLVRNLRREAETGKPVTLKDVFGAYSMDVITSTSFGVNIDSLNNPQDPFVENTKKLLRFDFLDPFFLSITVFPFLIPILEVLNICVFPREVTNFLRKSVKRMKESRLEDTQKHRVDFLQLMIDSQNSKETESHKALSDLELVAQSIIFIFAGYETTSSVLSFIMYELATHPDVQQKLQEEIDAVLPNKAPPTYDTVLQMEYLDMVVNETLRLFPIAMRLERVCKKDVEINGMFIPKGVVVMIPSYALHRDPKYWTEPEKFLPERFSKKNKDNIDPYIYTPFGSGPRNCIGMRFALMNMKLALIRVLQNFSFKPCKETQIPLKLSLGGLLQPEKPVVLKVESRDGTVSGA
Particulars: 10 μM compound, human liver microsomes 0.25 mg/mL, substrate midazolam, 15 minutes. The method, then:
as §1, §2, §3

T2 sequence (P33261 whole entry): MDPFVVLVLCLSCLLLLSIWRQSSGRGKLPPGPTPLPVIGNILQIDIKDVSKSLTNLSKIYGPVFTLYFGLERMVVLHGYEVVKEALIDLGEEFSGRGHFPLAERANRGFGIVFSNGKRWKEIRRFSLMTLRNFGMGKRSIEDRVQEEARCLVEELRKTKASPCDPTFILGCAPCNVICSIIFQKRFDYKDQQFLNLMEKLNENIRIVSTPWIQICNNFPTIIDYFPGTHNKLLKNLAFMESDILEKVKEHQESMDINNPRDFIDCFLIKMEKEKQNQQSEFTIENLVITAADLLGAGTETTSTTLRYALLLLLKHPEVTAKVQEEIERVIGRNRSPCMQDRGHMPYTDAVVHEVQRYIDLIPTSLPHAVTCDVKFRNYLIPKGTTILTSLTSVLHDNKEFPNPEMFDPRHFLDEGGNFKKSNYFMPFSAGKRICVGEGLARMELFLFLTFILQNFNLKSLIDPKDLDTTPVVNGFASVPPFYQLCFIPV
T3 sequence (P11712 whole entry): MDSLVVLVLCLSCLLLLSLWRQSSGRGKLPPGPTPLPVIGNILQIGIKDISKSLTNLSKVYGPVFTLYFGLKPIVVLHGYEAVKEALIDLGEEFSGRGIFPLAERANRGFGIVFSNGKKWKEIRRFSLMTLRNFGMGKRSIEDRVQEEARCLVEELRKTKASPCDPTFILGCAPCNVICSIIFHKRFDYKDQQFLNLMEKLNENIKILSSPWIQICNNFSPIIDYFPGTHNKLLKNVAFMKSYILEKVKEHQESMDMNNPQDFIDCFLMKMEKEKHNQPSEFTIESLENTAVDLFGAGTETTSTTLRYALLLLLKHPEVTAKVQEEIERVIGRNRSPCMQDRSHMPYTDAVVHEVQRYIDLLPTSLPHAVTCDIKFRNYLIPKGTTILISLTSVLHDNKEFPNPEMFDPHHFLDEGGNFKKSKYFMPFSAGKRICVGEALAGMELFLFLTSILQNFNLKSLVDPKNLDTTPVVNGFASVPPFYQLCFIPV

For `N#CC(C#N)=NNc1ccc2c(c1)oc(=O)n2C(F)F` [Compound 21, (3-(difluoromethyl)-2-oxo-2,3-dihydrobenzo[d]oxazol-6-yl)carbonohydrazonoyl dicyanide], in series [1], the “CYP1A2 coenzyme activity (%) with respect to control group not treated” value was found to be 79.6%. In addition, the “CYP2C19 coenzyme activity (%) with respect to control group not treated” value in series [2] came to 83.7%. Besides, the “CYP2C9 coenzyme activity (%) with respect to control group not treated” value in series [3] stood at 64.4%. For the same compound, the “CYP2D6 coenzyme activity (%) with respect to control group not treated” value in series [4] is 89.1%. Moreover, the “CYP3A4 coenzyme activity (%) with respect to control group not treated” value in series [5] amounted to 90.4%.
For `Cn1c(=O)n(C)c2ncc(NN=C(C#N)C#N)cc21` [Compound 12, (1,3-dimethyl-2-oxo-2,3-dihydro-1H-imidazo[4,5-b]pyridin-6-yl)carbonohydrazonoyl dicyanide], in that order: 99.6%, 92.2%, 93.4%, above 100% and above 100%.
As to `Cc1cc2c(NN=C(C#N)C#N)cccc2c(=O)n1C` [Compound 7, (2,3-dimethyl-1-oxo-1,2-dihydroisoquinolin-5-yl)carbonohydrazonoyl dicyanide], in series [1], the “CYP1A2 coenzyme activity (%) with respect to control group not treated” value was found to be 33.2%. In series [2], the “CYP2C19 coenzyme activity (%) with respect to control group not treated” value was found to be 65.1%. Besides, the “CYP2C9 coenzyme activity (%) with respect to control group not treated” value in series [3] stood at 29.8%. In addition, in series [4], the “CYP2D6 coenzyme activity (%) with respect to control group not treated” value is reported as 86.2%. The “CYP3A4 coenzyme activity (%) with respect to control group not treated” value in series [5] worked out at 72%.
With `CC(C)n1ccc2c(NN=C(C#N)C#N)cccc2c1=O` [Compound 6, (2-isopropyl-1-oxo-1,2-dihydroisoquinolin-5-yl)carbonohydrazonoyl dicyanide], the “CYP1A2 coenzyme activity (%) with respect to control group not treated” value in series [1] is given as 68.3%. Besides, the “CYP2C19 coenzyme activity (%) with respect to control group not treated” value in series [2] was 37.8%. In addition, the “CYP2C9 coenzyme activity (%) with respect to control group not treated” value in series [3] was 8.7%. Moreover, the “CYP2D6 coenzyme activity (%) with respect to control group not treated” value in series [4] is listed as 85.4%. Moreover, in series [5], the “CYP3A4 coenzyme activity (%) with respect to control group not treated” value is reported as 81.4%.
For the compound `CCn1c(=O)n(C(C)C)c2ncc(NN=C(C#N)C#N)cc21` [Compound 55, (1-ethyl-3-isopropyl-2-oxo-2,3-dihydro-1H-imidazo[4,5-b]pyridin-6-yl)carbonohydrazonoyl dicyanide], the “CYP1A2 coenzyme activity (%) with respect to control group not treated” value in series [1] stood at 58.4%. For the same compound, in series [2], the “CYP2C19 coenzyme activity (%) with respect to control group not treated” value was determined as 73.1%. For the same compound, the “CYP2C9 coenzyme activity (%) with respect to control group not treated” value in series [3] is 38.9%. Besides, the “CYP2D6 coenzyme activity (%) with respect to control group not treated” value in series [4] came to 85.8%. Also, the “CYP3A4 coenzyme activity (%) with respect to control group not treated” value in series [5] was determined as 78%.
Take `CC(C)n1c(=O)oc2cc(NN=C(C#N)C#N)ccc21` [Compound 20, (3-isopropyl-2-oxo-2,3-dihydrobenzo[d]oxazol-6-yl)carbonohydrazonoyl dicyanide]: in series [1], the “CYP1A2 coenzyme activity (%) with respect to control group not treated” value is listed as 87.3%. In series [2], the “CYP2C19 coenzyme activity (%) with respect to control group not treated” value is reported as 85.7%. Besides, the “CYP2C9 coenzyme activity (%) with respect to control group not treated” value in series [3] is reported as 32.3%. Further, in series [4], the “CYP2D6 coenzyme activity (%) with respect to control group not treated” value turned out to be 98.1%. Further, in series [5], the “CYP3A4 coenzyme activity (%) with respect to control group not treated” value came to 98.8%.
For `CC(C)n1c(=O)oc2ccc(NN=C(C#N)C#N)cc21` [Compound 29, (3-isopropyl-2-oxo-2,3-dihydrobenzo[d]oxazol-5-yl)carbonohydrazonoyl dicyanide], the “CYP1A2 coenzyme activity (%) with respect to control group not treated” value in series [1] was 97.3%. The “CYP2C19 coenzyme activity (%) with respect to control group not treated” value in series [2] amounted to 91.3%. Besides, in series [3], the “CYP2C9 coenzyme activity (%) with respect to control group not treated” value worked out at 4.7%. The “CYP2D6 coenzyme activity (%) with respect to control group not treated” value in series [4] came to 94.2%. In addition, the “CYP3A4 coenzyme activity (%) with respect to control group not treated” value in series [5] was above 100%.
For `COc1cc(NN=C(C#N)C#N)cc2c1n(C)c(=O)n2C` [Compound 33, (7-methoxy-1,3-dimethyl-2-oxo-2,3-dihydro-1H-benzo[d]imidazol-5-yl)carbonohydrazonoyl dicyanide], in that order: 37.8%, above 100%, 69.9%, above 100% and 97.6%.
`CC(C)n1c(=O)n(C)c2ccc(NN=C(C#N)C#N)cc21` [Compound 36, (3-isopropyl-1-methyl-2-oxo-2,3-dihydro-1H-benzo[d]imidazol-5-yl)carbonohydrazonoyl dicyanide]: the “CYP1A2 coenzyme activity (%) with respect to control group not treated” value in series [1] was found to be 93.7%. Besides, the “CYP2C19 coenzyme activity (%) with respect to control group not treated” value in series [2] worked out at 89.5%. The “CYP2C9 coenzyme activity (%) with respect to control group not treated” value in series [3] was 36.6%. Besides, the “CYP2D6 coenzyme activity (%) with respect to control group not treated” value in series [4] is above 100%. For the same compound, the “CYP3A4 coenzyme activity (%) with respect to control group not treated” value in series [5] came out at 95.8%.
For `N#CC(C#N)=NNc1ccc2[nH]c(=O)sc2c1` [Compound 13, (2-oxo-2,3-dihydrobenzo[d]thiazol-6-yl)carbonohydrazonoyl dicyanide], in that order: 79%, 55.2%, 23.3%, 99.4% and 92.7%.
For `CCn1c(=O)n(C)c2cc(NN=C(C#N)C#N)cnc21` [Compound 48, (3-ethyl-1-methyl-2-oxo-2,3-dihydro-1H-imidazo[4,5-b]pyridin-6-yl)carbonohydrazonoyl dicyanide], in that order: above 100%, above 100%, above 100%, above 100% and above 100%.
With `N#CC(C#N)=NNc1cccc2c(=O)[nH]ccc12` [Compound 4, (1-oxo-1,2-dihydroisoquinolin-5-yl)carbonohydrazonoyl dicyanide], the “CYP1A2 coenzyme activity (%) with respect to control group not treated” value in series [1] amounted to 85.3%. Moreover, in series [2], the “CYP2C19 coenzyme activity (%) with respect to control group not treated” value is given as 89.7%. In addition, the “CYP2C9 coenzyme activity (%) with respect to control group not treated” value in series [3] amounted to 59.3%. Moreover, in series [4], the “CYP2D6 coenzyme activity (%) with respect to control group not treated” value was determined as 91.1%. The “CYP3A4 coenzyme activity (%) with respect to control group not treated” value in series [5] amounted to 81.6%.
In the case of `CC(C)n1c(=O)n(C(C)C)c2ncc(NN=C(C#N)C#N)cc21` [Compound 34, (1,3-diisopropyl-2-oxo-2,3-dihydro-1H-imidazo[4,5-b]pyridin-6-yl)carbonohydrazonoyl dicyanide], the “CYP1A2 coenzyme activity (%) with respect to control group not treated” value in series [1] is reported as above 100%. Further, the “CYP2C19 coenzyme activity (%) with respect to control group not treated” value in series [2] was determined as 88.8%. Besides, the “CYP2C9 coenzyme activity (%) with respect to control group not treated” value in series [3] was 41.9%. The “CYP2D6 coenzyme activity (%) with respect to control group not treated” value in series [4] came out at 99.1%. Besides, in series [5], the “CYP3A4 coenzyme activity (%) with respect to control group not treated” value turned out to be 90.2%.
